From US20210255193A1, “LYSINE REACTIVE PROBES AND USES THEREOF” (The Scripps Research Institute, priority 2017, published 2021)

Legend:
[1] = biological target: T1, PFKL 6-phosphofructokinase, liver type (Homo sapiens, UniProt P17858); experiment: competitive isoTOP-ABPP; assay type: binding; details: 50 uM, in vitro; for R value (DMSO/fragment) for probe 1 labeling / isoTOP-ABPP reactivity ratio at lysine P17858_K315 / isoTOP-ABPP reactivity ratio at lysine P17858_K677 / isoTOP-ABPP reactivity ratio at lysine P17858_K715: 231 sol; for isoTOP-ABPP ratio (R) at liganded lysine P17858_K677 / isoTOP-ABPP ratio (R) at liganded lysine P17858_K715 / isoTOP-ABPP ratio (R) at liganded lysine P17858_K315: sol, 231
T1 construct: isoTOP-ABPP experiments performed in cell lysates (in vitro); endogenous in cells; host or cells: soluble proteome of human cancer cell lines (MDA-MB-231; Ramos and Jurkat also prepared)
T1 sequence (P17858 1-780): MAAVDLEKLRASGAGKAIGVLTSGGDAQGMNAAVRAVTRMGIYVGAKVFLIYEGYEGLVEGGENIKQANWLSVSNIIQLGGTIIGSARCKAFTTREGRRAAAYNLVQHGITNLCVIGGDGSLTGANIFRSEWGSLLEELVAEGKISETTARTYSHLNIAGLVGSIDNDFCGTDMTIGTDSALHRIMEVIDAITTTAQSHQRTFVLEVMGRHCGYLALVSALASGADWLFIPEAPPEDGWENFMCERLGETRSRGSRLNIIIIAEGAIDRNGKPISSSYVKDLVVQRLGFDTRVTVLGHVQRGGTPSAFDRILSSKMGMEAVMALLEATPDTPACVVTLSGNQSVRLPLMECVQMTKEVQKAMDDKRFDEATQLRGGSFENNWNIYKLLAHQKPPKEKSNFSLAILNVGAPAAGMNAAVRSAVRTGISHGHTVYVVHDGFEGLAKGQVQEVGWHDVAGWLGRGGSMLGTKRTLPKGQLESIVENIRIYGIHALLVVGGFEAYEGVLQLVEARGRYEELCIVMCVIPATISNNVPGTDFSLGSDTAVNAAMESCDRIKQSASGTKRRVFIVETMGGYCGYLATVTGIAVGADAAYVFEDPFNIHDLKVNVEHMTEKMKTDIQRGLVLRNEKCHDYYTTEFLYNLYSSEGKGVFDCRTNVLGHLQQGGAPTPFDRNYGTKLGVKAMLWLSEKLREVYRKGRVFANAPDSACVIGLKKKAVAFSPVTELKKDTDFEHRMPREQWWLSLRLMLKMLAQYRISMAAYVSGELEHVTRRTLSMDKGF
Method in brief: (§1)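 Cell lysate (0.5 ml) was pre-treated with fragment, 50 μM for activated esters or 100 μM for guanidinylating agents, versus DMSO, then labeled 1 h at ambient temperature with 0.1 mM STP-alkyne. Light/heavy TEV tags attached by CuAAC; R = DMSO/compound MS1 peak-area ratio, median per lysine.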

[2] = biological target: T2, KPNA2 Importin subunit alpha-2 (Homo sapiens, UniProt P52292); experiment: competitive isoTOP-ABPP; assay type: binding; details: 50 uM, in vitro; for R value (DMSO/fragment) for probe 1 labeling: P52292_K459; for R value (DMSO/fragment) for probe 1 labeling / isoTOP-ABPP reactivity ratio at lysine P52292_K459: 231 sol; for isoTOP-ABPP ratio (R) at liganded lysine P52292_K459: sol, 231
T2 construct: isoTOP-ABPP experiments performed in cell lysates (in vitro); endogenous in cells; host or cells: soluble proteome of human cancer cell lines (MDA-MB-231, Ramos, Jurkat)
Method in brief: as §1

| Structure (SMILES) | isoTOP-ABPP reactivity ratio at lysine P17858_K677 [1] | isoTOP-ABPP reactivity ratio at lysine P17858_K715 [1] | isoTOP-ABPP reactivity ratio at lysine P52292_K459 [2] | isoTOP-ABPP ratio (R) at liganded lysine P17858_K677 [1] | isoTOP-ABPP ratio (R) at liganded lysine P17858_K715 [1] | isoTOP-ABPP ratio (R) at liganded lysine P52292_K459 [2] | further results |
| --- | --- | --- | --- | --- | --- | --- | --- |
| O=C(CCc1cn(-c2ccccc2)nc1-c1ccccc1)Oc1c(F)c(F)c(F)c(F)c1F [fragment 19, Pentafluorophenyl 3-(1,3-diphenyl-1H-pyrazol-4-yl)propanoate] |  |  |  |  |  |  | R value (DMSO/fragment) for probe 1 labeling ([1]; P17858_K315): 1.0; R value (DMSO/fragment) for probe 1 labeling ([1]; P17858_K677): 1.2; R value (DMSO/fragment) for probe 1 labeling ([1]; P17858_K715): 1.6; R value (DMSO/fragment) for probe 1 labeling [2]: 2.3 |
| O=C(Oc1c(F)c(F)c(F)c(F)c1F)C(c1ccccc1)c1ccccc1 [fragment 20, Pentafluorophenyl 2,2-diphenylacetate] |  |  |  |  |  |  | R value (DMSO/fragment) for probe 1 labeling ([1]; P17858_K677): 18.8; R value (DMSO/fragment) for probe 1 labeling ([1]; P17858_K715): 1.3; R value (DMSO/fragment) for probe 1 labeling [2]: 5.5 |
| O=C(Oc1c(F)c(F)c(F)c(F)c1F)c1cc(C(F)(F)F)cc(C(F)(F)F)c1 [fragment 21, Pentafluorophenyl 3,5-bis(trifluoromethyl)benzoate] |  |  |  |  |  |  | R value (DMSO/fragment) for probe 1 labeling ([1]; P17858_K677): 0.9; R value (DMSO/fragment) for probe 1 labeling ([1]; P17858_K715): 0.9; R value (DMSO/fragment) for probe 1 labeling [2]: 1.0 |
| Cn1cc(CC(=O)Oc2c(F)c(F)c(F)c(F)c2F)c2ccccc21 [fragment 22, Pentafluorophenyl 2-(1-methyl-1H-indol-3-yl)acetate] |  |  |  |  |  |  | R value (DMSO/fragment) for probe 1 labeling ([1]; P17858_K677): 2.7; R value (DMSO/fragment) for probe 1 labeling ([1]; P17858_K715): 2.9; R value (DMSO/fragment) for probe 1 labeling [2]: 6.2 |
| COc1cc(CCC(=O)Oc2c(F)c(F)c(F)c(F)c2F)cc(OC)c1OC [fragment 23, Pentafluorophenyl 3-(3,4,5-trimethoxyphenyl)propanoate] |  |  |  |  |  |  | R value (DMSO/fragment) for probe 1 labeling ([1]; P17858_K677): 1.8; R value (DMSO/fragment) for probe 1 labeling ([1]; P17858_K715): 0.6; R value (DMSO/fragment) for probe 1 labeling [2]: 1.9 |
| O=C(Oc1c(F)c(F)c(F)c(F)c1F)C1CCN(C(=O)OCc2ccccc2)CC1 [fragment 24, 1-Benzyl 4-(pentafluorophenyl) piperidine-1,4-dicarboxylate] | 3.3 | 0.9 | 1.2 |  |  |  | isoTOP-ABPP reactivity ratio at lysine P17858_K315 [1]: 0.9 |
| O=C(Oc1c(F)c(F)c(F)c(F)c1F)c1ccc2ccccc2n1 [fragment 25, Pentafluorophenyl quinoline-2-carboxylate] | 1.6 | 1.3 | 1.3 |  |  |  | isoTOP-ABPP reactivity ratio at lysine P17858_K315 [1]: 0.9 |
| O=C(CCc1coc2cc(F)ccc2c1=O)Oc1c(F)c(F)c(F)c(F)c1F [fragment 26, Pentafluorophenyl 3-(7-fluoro-4-oxo-4H-chromen-3-yl)propanoate] | 20.0 | 1.5 | 8.2 |  |  |  |  |
| O=C(CN1C(=O)c2ccccc2C1=O)Oc1c(F)c(F)c(F)c(F)c1F [fragment 27, Pentafluorophenyl 2-(1,3-dioxoisoindolin-2-yl)acetate] | 18.1 | 1.3 | 1.3 |  |  |  |  |
| CCn1cc(C(=O)Oc2c(F)c(F)c(F)c(F)c2F)c(=O)c2ccc(C)nc21 [fragment 28, Pentafluorophenyl 1-ethyl-7-methyl-4-oxo-1,4-dihydro-1,8-naphthyridine-3-carboxylate] | 1.1 | 1.5 | 1.3 |  |  |  |  |
| O=C(CCc1cn(-c2ccccc2)nc1-c1ccccc1)Oc1ccc([N+](=O)[O-])cc1[N+](=O)[O-] [fragment 29, 2,4-Dinitrophenyl 3-(1,3-diphenyl-1H-pyrazol-4-yl)propanoate] | 2.0 | 6.8 | 2.0 |  |  |  | isoTOP-ABPP reactivity ratio at lysine P17858_K315 [1]: 0.8 |
| O=C(Oc1ccc([N+](=O)[O-])cc1[N+](=O)[O-])C(c1ccccc1)c1ccccc1 [fragment 30, 2,4-Dinitrophenyl 2,2-diphenylacetate] | 20.0 |  | 4.3 |  |  |  | isoTOP-ABPP reactivity ratio at lysine P17858_K315 [1]: 4.9 |
| O=C(Oc1ccc([N+](=O)[O-])cc1[N+](=O)[O-])c1cc(C(F)(F)F)cc(C(F)(F)F)c1 [fragment 31, 2,4-Dinitrophenyl 3,5-bis(trifluoromethyl)benzoate] | 2.5 | 2.3 | 1.3 |  |  |  |  |
| Cn1cc(CC(=O)Oc2ccc([N+](=O)[O-])cc2[N+](=O)[O-])c2ccccc21 [fragment 32, 2,4-Dinitrophenyl 2-(1-methyl-1H-indol-3-yl)acetate] | 11.9 | 7.7 | 1.8 |  |  |  | isoTOP-ABPP reactivity ratio at lysine P17858_K315 [1]: 20.0 |
| COc1cc(CCC(=O)Oc2ccc([N+](=O)[O-])cc2[N+](=O)[O-])cc(OC)c1OC [fragment 33, 2,4-Dinitrophenyl 3-(3,4,5-trimethoxyphenyl)propanoate] | 2.0 | 1.1 | 1.8 |  |  |  | isoTOP-ABPP reactivity ratio at lysine P17858_K315 [1]: 0.8 |
| O=C(Oc1ccc([N+](=O)[O-])cc1[N+](=O)[O-])C1CCN(C(=O)OCc2ccccc2)CC1 [fragment 34, 1-Benzyl 4-(2,4-dinitrophenyl) piperidine-1,4-dicarboxylate] |  |  |  | 2.8 | 1.3 | 1.0 |  |
| O=C(Oc1ccc([N+](=O)[O-])cc1[N+](=O)[O-])c1ccc2ccccc2n1 [fragment 35, 2,4-Dinitrophenyl quinoline-2-carboxylate] |  |  |  | 1.5 | 1.3 | 1.3 |  |
| O=C(CCc1coc2cc(F)ccc2c1=O)Oc1ccc([N+](=O)[O-])cc1[N+](=O)[O-] [fragment 36, 2,4-Dinitrophenyl 3-(7-fluoro-4-oxo-4H-chromen-3-yl)propanoate] |  |  |  | 20.0 | 20.0 | 9.2 |  |
| O=C(Oc1ccc([N+](=O)[O-])cc1[N+](=O)[O-])c1ccc(-c2ccccc2)cc1 [fragment 37, 2,4-Dinitrophenyl [1,1′-biphenyl]-4-carboxylate] |  |  |  | 1.1 | 1.1 | 0.9 | isoTOP-ABPP ratio (R) at liganded lysine P17858_K315 [1]: 1.3 |
| O=C(CC12CC3CC(CC(C3)C1)C2)Oc1ccc([N+](=O)[O-])cc1[N+](=O)[O-] [fragment 38, 2,4-Dinitrophenyl 2-(adamantan-1-yl)acetate] |  |  |  | 1.3 | 20.0 | 20.0 | isoTOP-ABPP ratio (R) at liganded lysine P17858_K315 [1]: 0.4 |
| O=C(Oc1ccc([N+](=O)[O-])cc1[N+](=O)[O-])c1ccc(Oc2ccccc2)cc1 [fragment 39, 2,4-Dinitrophenyl 4-phenoxybenzoate] |  |  |  | 1.3 | 0.6 | 1.0 |  |
| O=C(Oc1ccc([N+](=O)[O-])cc1[N+](=O)[O-])c1ccccc1Nc1cccc(C(F)(F)F)c1 [fragment 40, 2,4-Dinitrophenyl 2-((3-(trifluoromethyl)phenyl)amino)benzoate] |  |  |  | 0.9 | 1.1 | 1.7 |  |
| CC(C)(C)OC(=O)NCCCC(=O)Oc1ccc([N+](=O)[O-])cc1[N+](=O)[O-] [fragment 41, 2,4-Dinitrophenyl 4-((tert-butoxycarbonyl)amino)butanoate] |  |  |  | 5.6 | 2.0 | 2.3 | isoTOP-ABPP ratio (R) at liganded lysine P17858_K315 [1]: 2.3 |
| O=C(Oc1ccc([N+](=O)[O-])cc1[N+](=O)[O-])C(c1ccccc1)(c1ccccc1)c1ccccc1 [fragment 42, 2,4-Dinitrophenyl 2,2,2-triphenylacetate] |  |  |  | 0.8 | 0.9 | 0.9 | isoTOP-ABPP ratio (R) at liganded lysine P17858_K315 [1]: 0.7 |
